Source: publication PMC10971446 (Marine Drugs, 2024)
Where a SMILES comes first, the peptide text is derived from it. Bridges are numbered along the chain shown (N, C = ends). [ ]: non-standard residue; d: D form. pGlu = O=C1CC[C@@H](C(=O)O)N1

Key:
[1] = test system: ACh+PNU-responsive mouse DRG neurons (α7 nAChR); assay type: cell-based
mouse DRG neurons = conditions: cited from earlier work
α7 nAChR = conditions: cited from earlier work
mouse α6/α3β4 nAChR = mouse α6/α3β4 nAChR (Mus musculus, UniProt Q8R493+Q8R4G9+Q9R0W9); assay type: cell-based
mouse α6/α3β4 nAChR, sequence (Q8R493 whole entry, looked up): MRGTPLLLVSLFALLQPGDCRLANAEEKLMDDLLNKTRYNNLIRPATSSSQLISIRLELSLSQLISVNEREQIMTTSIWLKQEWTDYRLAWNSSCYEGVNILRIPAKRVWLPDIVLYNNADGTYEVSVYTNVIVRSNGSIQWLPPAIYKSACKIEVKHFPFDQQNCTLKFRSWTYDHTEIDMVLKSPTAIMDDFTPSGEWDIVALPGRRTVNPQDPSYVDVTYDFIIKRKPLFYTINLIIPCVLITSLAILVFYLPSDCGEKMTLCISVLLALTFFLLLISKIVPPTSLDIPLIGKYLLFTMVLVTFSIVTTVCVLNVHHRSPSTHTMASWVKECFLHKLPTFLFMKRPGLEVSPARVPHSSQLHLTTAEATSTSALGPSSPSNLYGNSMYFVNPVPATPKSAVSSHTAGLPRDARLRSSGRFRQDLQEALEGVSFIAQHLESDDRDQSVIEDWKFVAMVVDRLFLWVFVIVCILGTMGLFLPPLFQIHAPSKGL
mouse α6/α3β4 nAChR, sequence (Q8R4G9 whole entry, looked up): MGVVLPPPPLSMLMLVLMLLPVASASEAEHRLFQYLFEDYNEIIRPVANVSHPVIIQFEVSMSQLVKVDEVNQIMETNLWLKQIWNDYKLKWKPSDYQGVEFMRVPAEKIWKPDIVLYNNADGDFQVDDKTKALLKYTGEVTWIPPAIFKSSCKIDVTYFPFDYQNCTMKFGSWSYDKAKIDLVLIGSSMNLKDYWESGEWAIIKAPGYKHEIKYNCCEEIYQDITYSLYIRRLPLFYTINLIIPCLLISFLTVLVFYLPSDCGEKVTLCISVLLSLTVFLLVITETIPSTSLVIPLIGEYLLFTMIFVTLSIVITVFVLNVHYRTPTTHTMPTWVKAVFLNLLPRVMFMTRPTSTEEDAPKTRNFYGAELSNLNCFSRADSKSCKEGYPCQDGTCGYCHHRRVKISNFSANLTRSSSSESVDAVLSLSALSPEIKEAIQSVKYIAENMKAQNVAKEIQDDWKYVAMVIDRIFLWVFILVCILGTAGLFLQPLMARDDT
mouse α6/α3β4 nAChR, sequence (Q9R0W9 whole entry, looked up): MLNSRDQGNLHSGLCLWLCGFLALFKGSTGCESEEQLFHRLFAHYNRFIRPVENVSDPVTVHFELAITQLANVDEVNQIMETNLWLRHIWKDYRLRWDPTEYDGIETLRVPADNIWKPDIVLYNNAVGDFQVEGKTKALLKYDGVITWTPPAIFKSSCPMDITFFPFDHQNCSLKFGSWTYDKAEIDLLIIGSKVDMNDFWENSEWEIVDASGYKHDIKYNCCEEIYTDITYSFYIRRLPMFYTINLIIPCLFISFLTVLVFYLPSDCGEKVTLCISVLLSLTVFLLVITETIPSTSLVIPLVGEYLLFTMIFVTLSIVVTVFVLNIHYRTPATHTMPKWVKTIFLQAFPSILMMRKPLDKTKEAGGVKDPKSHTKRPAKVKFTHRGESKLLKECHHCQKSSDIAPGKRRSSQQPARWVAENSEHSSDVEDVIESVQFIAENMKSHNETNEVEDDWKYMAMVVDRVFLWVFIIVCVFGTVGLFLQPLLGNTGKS

Compound	calcium response to ACh alone or ACh+PNU in α7-expressing DRG neurons [1]	calcium response of DRG neurons to agonist (mouse DRG neurons)	α7 modulation (α7 nAChR)	loss of potency on α6/α3β4 compared to αCtx-PeIA (mouse α6/α3β4 nAChR)
CC(=O)OCC[N+](C)(C)C [ACh, acetylcholine]	did not cause calcium influx in these cells	a subset of mouse DRG neurons responds to serial application of 1 mM acetylcholine (ACh) with elevation of intracellular calcium		
PNU-120596	co-application of ACh and PNU uncovered a calcium response		α7 positive allosteric modulator	
CC(C)C[C@@H]1NC(=O)[C@H](CCC(=O)O)NC(=O)[C@@H]2CCCN2C(=O)[C@H](Cc2c[nH]cn2)NC(=O)[C@H](CC(N)=O)NC(=O)[C@H](C(C)C)NC(=O)[C@H](CO)NC(=O)[C@@H]2CSSC[C@H](NC(=O)CNC(=O)[C@@H]3CCC(=O)N3)C(=O)N[C@@H](CSSC[C@@H](C(=O)N[C@@H](Cc3c[nH]c4ccccc34)C(=O)O)NC1=O)C(=O)N[C@@H](CO)C(=O)N[C@@H](Cc1c[nH]cn1)C(=O)N1CCC[C@H]1C(=O)N[C@@H](C)C(=O)N2 [αCtx-AtIA] ([pGlu]GCCSHPACSVNHPELCW-OH; disulfide 3-9, 4-17)				~ 5 fold
